Measured values as given in paper PMC9856672, “SGC-CAMKK2-1: A Chemical Probe for CAMKK2” (Cells, 2023).

What was measured:
[1] = molecular target: T1, HIPK1 (Homo sapiens, UniProt Q86Z02); assay: KINOMEscan at 1 μM, HIPK1; type: binding; conditions: 1000 nM, read-out: Percent Control
T1 construct: purchased Eurofins DiscoverX KINOMEscan
Source text: (§1) Supplement cells-12-00287-s001.zip/File S2. KinomeScan data for the CAMKK2 probe and negative control.xlsx, sheet "SGC-CAMKK2-1N" | column: Percent Control

[2] = molecular target: T2, ABL1(Q252H)-phosphorylated (Homo sapiens, UniProt P00519, Q252H); assay: KINOMEscan at 1 μM, ABL1(Q252H)-phosphorylated; type: binding; conditions: 1000 nM, read-out: Percent Control
T2 construct: purchased Eurofins DiscoverX KINOMEscan
Source text: as §1

[3] = molecular target: T3, CAMK2A (Homo sapiens, UniProt Q9UQM7); assay: KINOMEscan at 1 μM, CAMK2A; type: binding; conditions: 1000 nM, read-out: Percent Control
T3 construct: purchased Eurofins DiscoverX KINOMEscan
Source text: as §1

[4] = molecular target: T4, KIT(L576P) (Homo sapiens, UniProt P10721, L576P); assay: KINOMEscan at 1 μM, KIT(L576P); type: binding; conditions: 1000 nM, read-out: Percent Control
T4 construct: purchased Eurofins DiscoverX KINOMEscan
Source text: as §1

[5] = molecular target: T5, ADCK3 (Homo sapiens, UniProt Q8NI60); assay: KINOMEscan at 1 μM, ADCK3; type: binding; conditions: 1000 nM, read-out: Percent Control
T5 construct: purchased Eurofins DiscoverX KINOMEscan
Source text: as §1

[6] = molecular target: T6, IKK-alpha (Homo sapiens, UniProt O15111); assay: KINOMEscan at 1 μM, IKK-alpha; type: binding; conditions: 1000 nM, read-out: Percent Control
T6 construct: purchased Eurofins DiscoverX KINOMEscan
Source text: as §1

[7] = molecular target: T7, PLK1 (Homo sapiens, UniProt P53350); assay: KINOMEscan at 1 μM, PLK1; type: binding; conditions: 1000 nM, read-out: Percent Control
T7 construct: purchased Eurofins DiscoverX KINOMEscan
Source text: as §1

[8] = test system: FLT3(ITD,F691L); assay: KINOMEscan at 1 μM, FLT3(ITD,F691L); type: binding, human; conditions: 1000 nM
Source text: as §1

[9] = molecular target: T8, RPS6KA5(Kin.Dom.2-C-terminal) (Homo sapiens, UniProt O75582); assay: KINOMEscan at 1 μM, RPS6KA5(Kin.Dom.2-C-terminal); type: binding; conditions: 1000 nM, read-out: Percent Control
T8 construct: RPS6KA5(Kin.Dom.2-C-terminal); purchased Eurofins DiscoverX KINOMEscan
T8 sequence (O75582 388-802 limits assumed): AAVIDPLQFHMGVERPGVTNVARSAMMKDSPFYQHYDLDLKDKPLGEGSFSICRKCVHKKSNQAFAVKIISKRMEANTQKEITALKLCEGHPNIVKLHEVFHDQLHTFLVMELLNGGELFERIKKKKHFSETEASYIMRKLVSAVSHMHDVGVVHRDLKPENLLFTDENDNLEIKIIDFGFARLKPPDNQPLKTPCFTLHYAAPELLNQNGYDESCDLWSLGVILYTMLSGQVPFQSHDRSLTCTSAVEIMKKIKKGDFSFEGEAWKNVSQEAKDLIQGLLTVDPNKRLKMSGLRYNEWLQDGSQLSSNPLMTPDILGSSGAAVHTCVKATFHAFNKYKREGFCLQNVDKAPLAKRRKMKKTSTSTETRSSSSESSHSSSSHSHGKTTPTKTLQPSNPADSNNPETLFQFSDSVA
Source text: as §1

[10] = molecular target: T9, EGFR(L858R,T790M) (Homo sapiens, UniProt P00533, L858R/T790M); assay: KINOMEscan at 1 μM, EGFR(L858R,T790M); type: binding; conditions: 1000 nM, read-out: Percent Control
T9 construct: purchased Eurofins DiscoverX KINOMEscan
Source text: as §1

[11] = molecular target: T10, CLK3 (Homo sapiens, UniProt P49761); assay: KINOMEscan at 1 μM, CLK3; type: binding; conditions: 1000 nM, read-out: Percent Control
T10 construct: purchased Eurofins DiscoverX KINOMEscan
T10 sequence (P49761 whole entry): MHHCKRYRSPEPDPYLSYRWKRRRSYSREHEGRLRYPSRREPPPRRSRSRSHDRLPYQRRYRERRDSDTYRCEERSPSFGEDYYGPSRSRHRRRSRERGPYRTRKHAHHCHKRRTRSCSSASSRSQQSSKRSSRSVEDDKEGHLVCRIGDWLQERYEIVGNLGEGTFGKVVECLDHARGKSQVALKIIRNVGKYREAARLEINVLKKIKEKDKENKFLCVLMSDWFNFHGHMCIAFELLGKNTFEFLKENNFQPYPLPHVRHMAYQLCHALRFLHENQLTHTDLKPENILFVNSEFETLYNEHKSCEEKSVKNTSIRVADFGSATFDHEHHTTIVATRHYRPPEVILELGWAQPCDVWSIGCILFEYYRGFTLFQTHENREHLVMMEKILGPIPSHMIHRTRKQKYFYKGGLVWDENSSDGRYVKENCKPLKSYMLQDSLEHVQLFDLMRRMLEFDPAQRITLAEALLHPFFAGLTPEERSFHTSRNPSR
Source text: as §1

[12] = molecular target: T11, CDK4-cyclinD3 (Homo sapiens, UniProt P11802); assay: KINOMEscan at 1 μM, CDK4-cyclinD3; type: binding; conditions: 1000 nM, read-out: Percent Control
T11 construct: purchased Eurofins DiscoverX KINOMEscan
Source text: as §1

[13] = molecular target: T12, JAK3(JH1domain-catalytic) (Homo sapiens, UniProt P52333); assay: KINOMEscan at 1 μM, JAK3(JH1domain-catalytic); type: binding; conditions: 1000 nM, read-out: Percent Control
T12 construct: JAK3(JH1domain-catalytic); purchased Eurofins DiscoverX KINOMEscan
Source text: as §1

[14] = molecular target: T13, FLT3(D835H) (Homo sapiens, UniProt P36888, D835H); assay: KINOMEscan at 1 μM, FLT3(D835H); type: binding; conditions: 1000 nM, read-out: Percent Control
T13 construct: purchased Eurofins DiscoverX KINOMEscan
Source text: as §1

[15] = molecular target: T14, ERK1 (Homo sapiens, UniProt P27361); assay: KINOMEscan at 1 μM, ERK1; type: binding; conditions: 1000 nM, read-out: Percent Control
T14 construct: purchased Eurofins DiscoverX KINOMEscan
Source text: as §1

[16] = molecular target: T15, DDR2 (Homo sapiens, UniProt Q16832); assay: KINOMEscan at 1 μM, DDR2; type: binding; conditions: 1000 nM, read-out: Percent Control
T15 construct: purchased Eurofins DiscoverX KINOMEscan
Source text: as §1

[17] = molecular target: T16, LOK (Homo sapiens, UniProt O94804); assay: KINOMEscan binding assay at 1 μM, LOK; conditions: Compound Concentration 1000 nM; read-out: Percent Control
T16 construct: purchased Eurofins DiscoverX KINOMEscan
Source text: as §1

[18] = molecular target: T17, SgK110 (Homo sapiens, UniProt P0C264); assay: KINOMEscan 1 μM, SgK110; type: binding; conditions: 1000 nM; Entrez SgK110; read-out: Percent Control
T17 construct: purchased Eurofins DiscoverX KINOMEscan
Source text: (§2) Supplement cells-12-00287-s001.zip/File S2. KinomeScan data for the CAMKK2 probe and negative control.xlsx, sheet "SGC-CAMKK2-1" | column: Percent Control

[19] = molecular target: T18, LATS2 (Homo sapiens, UniProt Q9NRM7); assay: KINOMEscan 1 μM, LATS2; type: binding; conditions: 1000 nM; Entrez LATS2; read-out: Percent Control
T18 construct: purchased Eurofins DiscoverX KINOMEscan
Source text: as §2

[20] = molecular target: T19, OSR1 (Homo sapiens, UniProt O95747); assay: KINOMEscan 1 μM, OSR1; type: binding; conditions: 1000 nM; Entrez OXSR1; read-out: Percent Control
T19 construct: purchased Eurofins DiscoverX KINOMEscan
Source text: as §2

[21] = molecular target: T20, KIT(D816H) (Homo sapiens, UniProt P10721, D816H); assay: KINOMEscan 1 μM, KIT(D816H); type: binding; conditions: 1000 nM; Entrez KIT; read-out: Percent Control
T20 construct: purchased Eurofins DiscoverX KINOMEscan
Source text: as §2

[22] = molecular target: T21, FES (Homo sapiens, UniProt P07332); assay: KINOMEscan 1 μM, FES; type: binding; conditions: 1000 nM; Entrez FES; read-out: Percent Control
T21 construct: purchased Eurofins DiscoverX KINOMEscan
Source text: as §2

[23] = molecular target: T22, TAK1 (Homo sapiens, UniProt O43318); assay: KINOMEscan 1 μM, TAK1; type: binding; conditions: 1000 nM; Entrez MAP3K7; read-out: Percent Control
T22 construct: purchased Eurofins DiscoverX KINOMEscan
T22 sequence (O43318 whole entry): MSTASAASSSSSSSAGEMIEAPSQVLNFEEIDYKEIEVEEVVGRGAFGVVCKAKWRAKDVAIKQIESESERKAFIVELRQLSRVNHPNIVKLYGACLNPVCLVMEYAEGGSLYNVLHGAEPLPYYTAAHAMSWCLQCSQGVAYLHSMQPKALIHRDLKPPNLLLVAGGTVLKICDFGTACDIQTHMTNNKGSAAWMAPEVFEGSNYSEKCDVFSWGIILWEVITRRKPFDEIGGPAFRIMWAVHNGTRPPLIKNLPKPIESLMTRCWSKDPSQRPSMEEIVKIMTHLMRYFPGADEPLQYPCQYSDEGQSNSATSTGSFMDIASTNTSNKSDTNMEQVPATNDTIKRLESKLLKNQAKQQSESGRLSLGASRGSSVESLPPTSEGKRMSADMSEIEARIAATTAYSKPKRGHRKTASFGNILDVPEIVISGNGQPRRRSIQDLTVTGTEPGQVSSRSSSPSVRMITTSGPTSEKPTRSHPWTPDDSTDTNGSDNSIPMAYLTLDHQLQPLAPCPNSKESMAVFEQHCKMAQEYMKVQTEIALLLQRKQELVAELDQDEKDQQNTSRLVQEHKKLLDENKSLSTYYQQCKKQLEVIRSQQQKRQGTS
Source text: as §2

[24] = molecular target: T23, RPS6KA5(Kin.Dom.1-N-terminal) (Homo sapiens, UniProt O75582); assay: KINOMEscan 1 μM, RPS6KA5(Kin.Dom.1-N-terminal); type: binding; conditions: 1000 nM; Entrez RPS6KA5; read-out: Percent Control
T23 construct: RPS6KA5(Kin.Dom.1-N-terminal); purchased Eurofins DiscoverX KINOMEscan
T23 sequence (O75582 1-387 limits assumed): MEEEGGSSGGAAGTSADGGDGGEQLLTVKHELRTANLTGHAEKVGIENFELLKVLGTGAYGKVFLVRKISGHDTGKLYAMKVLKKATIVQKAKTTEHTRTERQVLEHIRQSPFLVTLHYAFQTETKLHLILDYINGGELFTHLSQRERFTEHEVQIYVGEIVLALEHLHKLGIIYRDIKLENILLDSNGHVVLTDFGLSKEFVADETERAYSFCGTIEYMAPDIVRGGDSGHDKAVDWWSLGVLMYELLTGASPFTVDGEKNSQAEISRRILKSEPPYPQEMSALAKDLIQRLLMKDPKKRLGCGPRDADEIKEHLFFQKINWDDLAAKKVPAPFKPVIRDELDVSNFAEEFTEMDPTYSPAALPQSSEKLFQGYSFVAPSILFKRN
Source text: as §2

[25] = molecular target: T24, EPHA5 (Homo sapiens, UniProt P54756); assay: KINOMEscan 1 μM, EPHA5; type: binding; conditions: 1000 nM; Entrez EPHA5; read-out: Percent Control
T24 construct: purchased Eurofins DiscoverX KINOMEscan
Source text: as §2

[26] = molecular target: T25, ICK (Homo sapiens, UniProt Q9UPZ9); assay: KINOMEscan 1 μM, ICK; type: binding; conditions: 1000 nM; Entrez ICK; read-out: Percent Control
T25 construct: purchased Eurofins DiscoverX KINOMEscan
Source text: as §2

[27] = molecular target: T26, LRRK2(G2019S) (Homo sapiens, UniProt Q5S007, G2019S); assay: KINOMEscan 1 μM, LRRK2(G2019S); type: binding; conditions: 1000 nM; Entrez LRRK2; read-out: Percent Control
T26 construct: purchased Eurofins DiscoverX KINOMEscan
Source text: as §2

[28] = molecular target: T27, MARK2 (Homo sapiens, UniProt Q7KZI7); assay: KINOMEscan 1 μM, MARK2; type: binding; conditions: 1000 nM; Entrez MARK2; read-out: Percent Control
T27 construct: purchased Eurofins DiscoverX KINOMEscan
Source text: as §2

[29] = molecular target: T28, MARK4 (Homo sapiens, UniProt Q96L34); assay: KINOMEscan 1 μM, MARK4; type: binding; conditions: 1000 nM; Entrez MARK4; read-out: Percent Control
T28 construct: purchased Eurofins DiscoverX KINOMEscan
T28 sequence (Q96L34 whole entry): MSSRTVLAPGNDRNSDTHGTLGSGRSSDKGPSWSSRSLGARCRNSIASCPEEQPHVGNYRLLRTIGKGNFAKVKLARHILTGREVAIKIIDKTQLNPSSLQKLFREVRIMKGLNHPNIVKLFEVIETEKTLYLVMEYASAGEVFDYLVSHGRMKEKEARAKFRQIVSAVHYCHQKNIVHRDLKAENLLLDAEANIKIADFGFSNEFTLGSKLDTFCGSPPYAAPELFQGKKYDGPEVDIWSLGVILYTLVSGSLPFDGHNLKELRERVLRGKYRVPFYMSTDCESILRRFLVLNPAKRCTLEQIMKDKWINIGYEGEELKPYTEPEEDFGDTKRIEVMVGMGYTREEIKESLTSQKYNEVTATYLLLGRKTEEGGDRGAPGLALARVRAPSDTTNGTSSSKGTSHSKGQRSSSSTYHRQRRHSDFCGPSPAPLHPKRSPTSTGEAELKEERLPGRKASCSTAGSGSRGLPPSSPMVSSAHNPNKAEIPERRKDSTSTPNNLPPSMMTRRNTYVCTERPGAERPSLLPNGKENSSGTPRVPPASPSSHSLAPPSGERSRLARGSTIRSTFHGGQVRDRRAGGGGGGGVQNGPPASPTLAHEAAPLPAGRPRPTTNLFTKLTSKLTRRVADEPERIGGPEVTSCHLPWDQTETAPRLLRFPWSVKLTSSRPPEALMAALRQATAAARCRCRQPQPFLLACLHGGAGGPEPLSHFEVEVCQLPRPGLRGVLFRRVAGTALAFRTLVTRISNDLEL
Source text: as §2

[30] = molecular target: T29, MLK2 (Homo sapiens, UniProt Q02779); assay: KINOMEscan 1 μM, MLK2; type: binding; conditions: 1000 nM; Entrez MAP3K10; read-out: Percent Control
T29 construct: purchased Eurofins DiscoverX KINOMEscan
Source text: as §2

[31] = molecular target: T30, PFTAIRE2 (Homo sapiens, UniProt Q96Q40); assay: DiscoverX KINOMEscan binding assay at 1 μM, PFTAIRE2; conditions: PFTAIRE2 (CDK15); Compound Concentration 1000 nM; read-out: Percent Control
T30 construct: purchased Eurofins DiscoverX KINOMEscan
Source text: as §2

[32] = molecular target: T31, PIK3CD (Homo sapiens, UniProt O00329); assay: DiscoverX KINOMEscan binding assay at 1 μM, PIK3CD; conditions: Compound Concentration 1000 nM, read-out: Percent Control
T31 construct: purchased Eurofins DiscoverX KINOMEscan
T31 sequence (O00329 whole entry): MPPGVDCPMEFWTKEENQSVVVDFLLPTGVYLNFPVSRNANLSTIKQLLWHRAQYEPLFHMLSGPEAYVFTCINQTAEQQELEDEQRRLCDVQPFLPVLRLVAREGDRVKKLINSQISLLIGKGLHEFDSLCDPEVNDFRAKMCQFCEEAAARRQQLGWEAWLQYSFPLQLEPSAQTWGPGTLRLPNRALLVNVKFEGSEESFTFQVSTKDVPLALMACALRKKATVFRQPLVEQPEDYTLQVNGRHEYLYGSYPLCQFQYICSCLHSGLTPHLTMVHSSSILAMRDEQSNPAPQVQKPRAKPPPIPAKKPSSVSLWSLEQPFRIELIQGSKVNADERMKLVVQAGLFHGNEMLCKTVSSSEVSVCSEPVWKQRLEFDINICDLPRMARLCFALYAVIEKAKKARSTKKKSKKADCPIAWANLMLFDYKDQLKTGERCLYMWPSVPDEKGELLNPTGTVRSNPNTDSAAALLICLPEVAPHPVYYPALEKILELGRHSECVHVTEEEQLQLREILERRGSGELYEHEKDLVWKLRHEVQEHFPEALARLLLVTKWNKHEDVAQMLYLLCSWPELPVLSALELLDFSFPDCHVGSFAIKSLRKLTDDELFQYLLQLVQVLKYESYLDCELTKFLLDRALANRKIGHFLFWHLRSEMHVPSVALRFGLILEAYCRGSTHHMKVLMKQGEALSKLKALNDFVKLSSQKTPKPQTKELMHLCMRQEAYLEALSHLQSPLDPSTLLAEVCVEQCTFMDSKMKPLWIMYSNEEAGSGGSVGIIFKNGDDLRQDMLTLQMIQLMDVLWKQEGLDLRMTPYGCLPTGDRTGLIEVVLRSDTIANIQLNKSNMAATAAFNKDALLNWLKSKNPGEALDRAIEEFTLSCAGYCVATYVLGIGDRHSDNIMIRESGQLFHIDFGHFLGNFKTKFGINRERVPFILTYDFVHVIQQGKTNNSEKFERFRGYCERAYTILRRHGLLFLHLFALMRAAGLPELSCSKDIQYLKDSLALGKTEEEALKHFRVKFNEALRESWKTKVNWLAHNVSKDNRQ
Source text: as §2

T1 sequence (Q86Z02 whole entry): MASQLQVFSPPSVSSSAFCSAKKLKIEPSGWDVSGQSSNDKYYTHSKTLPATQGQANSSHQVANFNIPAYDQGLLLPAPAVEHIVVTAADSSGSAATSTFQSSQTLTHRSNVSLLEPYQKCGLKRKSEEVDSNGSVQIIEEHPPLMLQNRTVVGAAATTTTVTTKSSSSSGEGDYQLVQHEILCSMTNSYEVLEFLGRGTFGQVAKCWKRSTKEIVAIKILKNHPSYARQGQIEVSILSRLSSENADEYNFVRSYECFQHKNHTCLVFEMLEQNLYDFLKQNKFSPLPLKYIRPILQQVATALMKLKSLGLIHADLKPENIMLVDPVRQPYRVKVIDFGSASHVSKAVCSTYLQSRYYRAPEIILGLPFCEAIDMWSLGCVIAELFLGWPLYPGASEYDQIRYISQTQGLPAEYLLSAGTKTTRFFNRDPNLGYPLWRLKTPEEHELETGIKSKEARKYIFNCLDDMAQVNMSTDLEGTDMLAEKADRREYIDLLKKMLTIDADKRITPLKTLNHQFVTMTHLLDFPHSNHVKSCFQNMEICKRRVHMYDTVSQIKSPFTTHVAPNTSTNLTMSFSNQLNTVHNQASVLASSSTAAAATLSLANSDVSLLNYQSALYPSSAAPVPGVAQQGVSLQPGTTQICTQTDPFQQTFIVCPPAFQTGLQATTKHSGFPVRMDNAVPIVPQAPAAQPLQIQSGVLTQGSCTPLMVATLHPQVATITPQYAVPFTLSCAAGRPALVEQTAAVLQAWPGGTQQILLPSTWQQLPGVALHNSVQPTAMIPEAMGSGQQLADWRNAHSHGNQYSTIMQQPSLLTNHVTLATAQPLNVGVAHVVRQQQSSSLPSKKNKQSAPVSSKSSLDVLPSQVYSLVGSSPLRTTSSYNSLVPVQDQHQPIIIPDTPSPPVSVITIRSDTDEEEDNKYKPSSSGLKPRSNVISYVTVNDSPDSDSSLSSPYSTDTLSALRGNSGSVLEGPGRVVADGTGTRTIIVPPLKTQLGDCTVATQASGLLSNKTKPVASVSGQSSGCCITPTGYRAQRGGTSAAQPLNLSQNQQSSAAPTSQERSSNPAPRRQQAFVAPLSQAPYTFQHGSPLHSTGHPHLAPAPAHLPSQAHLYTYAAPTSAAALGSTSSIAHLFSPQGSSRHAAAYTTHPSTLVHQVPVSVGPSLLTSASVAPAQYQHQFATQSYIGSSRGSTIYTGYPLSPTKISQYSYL

Compound: O=C(O)c1ccc(-c2coc3ncc(-c4ccccc4)cc23)cc1Cl [SGC-CAMKK2-1N (UNC-YL-83)]
- remaining binding at 1 µM [1]: 44%
- remaining binding at 1 µM [2]: 61%
- remaining binding at 1 µM [3]: 65%
- remaining binding at 1 µM [4]: 66%
- remaining binding at 1 µM [5]: 68%
- remaining binding at 1 µM [6]: 75%
- remaining binding at 1 µM [7]: 79%
- Percent Control [8]: 81
- remaining binding at 1 µM [9]: 82%
- remaining binding at 1 µM [10]: 83%
- remaining binding at 1 µM [11]: 85%
- remaining binding at 1 µM [12]: 87%
- remaining binding at 1 µM [13]: 87%
- remaining binding at 1 µM [14]: 88%
- remaining binding at 1 µM [15]: 95%
- remaining binding at 1 µM [16]: 100%
- remaining binding at 1 µM [17]: 100%

Compound: Cc1cccc(-c2cnc3occ(-c4ccc(C(=O)O)c(C5CCCC5)c4)c3c2)c1 [SGC-CAMKK2-1 (YL-36)]
- remaining binding at 1 µM [18]: 57%
- remaining binding at 1 µM [19]: 72%
- remaining binding at 1 µM [20]: 84%
- remaining binding at 1 µM [21]: 87%
- remaining binding at 1 µM [22]: 88%
- remaining binding at 1 µM [23]: 91%
- remaining binding at 1 µM [24]: 98%
- remaining binding at 1 µM [25]: 100%
- remaining binding at 1 µM [26]: 100%
- remaining binding at 1 µM [27]: 100%
- remaining binding at 1 µM [28]: 100%
- remaining binding at 1 µM [29]: 100%
- remaining binding at 1 µM [30]: 100%
- remaining binding at 1 µM [31]: 100%
- remaining binding at 1 µM [32]: 100%
